These results are taken from patent publication US12398132B2, “Derivatives of 4-(imidazo[1,2-a]pyridin-3-yl)-n-(pyridinyl)pyrimidin-2-amine as therapeutic agents” (AUCENTRA THERAPEUTICS PTY LTD, priority 2019, dated 2025).

Residue numbers refer to the chain shown, from its start.

One assay concerns the target CDK9/CyclinT1 (Homo sapiens, UniProt P50750). The assay can be described thus: ADP Glo kinase assay, CDK9/CyclinT1. The class given is biochemical. The conditions noted are these: CDK9T1; apparent Ki calculated from Km (ATP) and IC50; read-out: CDK inhibition Ki.
In a further assay the target is CDK4/D1 (Homo sapiens, UniProt P11802). The assay is described as follows: ADP Glo kinase assay, CDK4/D1. The conditions noted are these: CDK4D1; for Ki: apparent Ki calculated from Km (ATP) and IC50, read-out: CDK inhibition Ki. Type of assay: biochemical.
The test system of the next assay is U937. The assay can be described thus: Proliferation assay (resazurin/MTT), U937. The class given is cell-based. The conditions noted are these: Homo sapiens, U-937, read-out: 72 h Growth inhibition GI50, U937 cells. In general terms: The colour change of resazurin is a common sign of viable cells or microbes.
The target of another assay is CDK6/D3 (Homo sapiens, UniProt Q00534). The assay can be described thus: ADP Glo kinase assay, CDK6/D3. The class given is biochemical. The conditions noted are these: CDK6D3; for Ki: apparent Ki calculated from Km (ATP) and IC50, read-out: CDK inhibition Ki.
In another assay the target is T1, FLT3(D835Y) (Homo sapiens, UniProt P36888, D835Y).
T1 sequence (P36888 27-993 D835Y): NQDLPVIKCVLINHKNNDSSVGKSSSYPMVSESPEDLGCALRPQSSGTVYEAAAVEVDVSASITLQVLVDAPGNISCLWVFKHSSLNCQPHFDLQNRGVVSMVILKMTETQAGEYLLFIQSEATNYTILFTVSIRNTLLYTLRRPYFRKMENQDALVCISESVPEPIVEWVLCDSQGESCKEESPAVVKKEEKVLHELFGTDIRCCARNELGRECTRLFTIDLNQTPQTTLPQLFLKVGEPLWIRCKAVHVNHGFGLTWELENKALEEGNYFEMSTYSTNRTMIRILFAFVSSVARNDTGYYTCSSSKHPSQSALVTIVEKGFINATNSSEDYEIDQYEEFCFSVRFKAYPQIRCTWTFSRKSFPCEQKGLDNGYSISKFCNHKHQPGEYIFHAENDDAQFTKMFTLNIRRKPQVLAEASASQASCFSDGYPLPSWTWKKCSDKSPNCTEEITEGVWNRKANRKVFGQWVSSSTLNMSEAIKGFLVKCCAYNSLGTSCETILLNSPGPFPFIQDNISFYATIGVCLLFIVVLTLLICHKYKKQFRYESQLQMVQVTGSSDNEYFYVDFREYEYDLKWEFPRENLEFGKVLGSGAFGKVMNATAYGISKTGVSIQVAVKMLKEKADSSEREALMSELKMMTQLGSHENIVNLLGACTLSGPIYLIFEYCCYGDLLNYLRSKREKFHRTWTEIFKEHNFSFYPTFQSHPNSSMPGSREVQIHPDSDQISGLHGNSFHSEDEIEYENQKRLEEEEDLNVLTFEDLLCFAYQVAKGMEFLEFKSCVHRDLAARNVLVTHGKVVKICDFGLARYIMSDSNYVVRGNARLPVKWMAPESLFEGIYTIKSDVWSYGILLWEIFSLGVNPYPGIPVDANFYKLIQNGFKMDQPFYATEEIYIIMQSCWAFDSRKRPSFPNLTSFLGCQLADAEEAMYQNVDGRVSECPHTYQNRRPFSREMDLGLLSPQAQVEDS
The assay can be described thus: ADP Glo kinase assay, FLT3(D835Y). Type of assay: biochemical. The conditions noted are these: apparent Ki calculated from Km (ATP) and IC50, read-out: FLT3 inhibition Ki.

The next assay addresses T2, FLT3(WT) (Homo sapiens, UniProt P36888).
T2 sequence (P36888 27-993): T1 sequence (P36888 27-993 D835Y) with Y809D
The assay is described as follows: ADP Glo kinase assay, FLT3(WT). The conditions noted are these: compound at 1 μM, read-out: residual enzymatic activity (%) at 1 μM. Type of assay: biochemical. A general note: ADP-Glo first removes unused ATP, then detects ADP through luciferase.

The target of the next assay is T3, FLT3(ITD) (Homo sapiens, UniProt P36888).
T3 sequence (P36888 1-993): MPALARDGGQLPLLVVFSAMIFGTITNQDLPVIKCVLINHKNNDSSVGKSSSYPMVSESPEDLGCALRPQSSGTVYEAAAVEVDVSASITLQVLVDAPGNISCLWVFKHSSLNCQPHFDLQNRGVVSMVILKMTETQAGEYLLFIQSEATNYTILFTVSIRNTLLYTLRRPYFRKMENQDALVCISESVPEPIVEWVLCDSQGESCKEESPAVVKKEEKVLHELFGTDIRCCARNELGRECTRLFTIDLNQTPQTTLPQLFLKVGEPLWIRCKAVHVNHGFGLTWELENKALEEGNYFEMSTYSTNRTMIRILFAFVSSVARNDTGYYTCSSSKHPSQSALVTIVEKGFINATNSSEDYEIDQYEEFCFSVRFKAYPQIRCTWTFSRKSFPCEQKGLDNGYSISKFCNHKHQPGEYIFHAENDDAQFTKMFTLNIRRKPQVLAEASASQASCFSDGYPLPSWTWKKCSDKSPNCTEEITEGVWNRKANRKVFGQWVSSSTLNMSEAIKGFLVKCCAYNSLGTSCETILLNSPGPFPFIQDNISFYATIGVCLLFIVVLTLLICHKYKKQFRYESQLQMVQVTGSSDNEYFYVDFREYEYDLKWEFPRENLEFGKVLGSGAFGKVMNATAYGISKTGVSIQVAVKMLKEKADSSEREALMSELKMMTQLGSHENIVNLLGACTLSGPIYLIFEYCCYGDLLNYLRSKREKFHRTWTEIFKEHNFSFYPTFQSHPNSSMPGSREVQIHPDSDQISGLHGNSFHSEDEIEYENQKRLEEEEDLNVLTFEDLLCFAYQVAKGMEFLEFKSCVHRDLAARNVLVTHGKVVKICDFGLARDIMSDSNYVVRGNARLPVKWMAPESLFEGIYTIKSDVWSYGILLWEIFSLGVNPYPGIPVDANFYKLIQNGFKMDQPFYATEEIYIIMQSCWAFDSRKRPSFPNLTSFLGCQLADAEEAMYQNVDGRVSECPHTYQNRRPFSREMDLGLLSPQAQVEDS
The assay is described as follows: ADP Glo kinase assay, FLT3(ITD). The class given is biochemical. The conditions noted are these: apparent Ki calculated from Km (ATP) and IC50, read-out: FLT3 inhibition Ki.

In the next assay the test system is MV-4-11. The assay is described as follows: Proliferation assay (resazurin/MTT), MV-4-11. Type of assay: cell-based. The conditions noted are these: Homo sapiens, MV4-11, read-out: 72 h Growth inhibition GI50, MV-4-11 cells.
Assay [1] addresses T4, CDK7HMAT1 (Homo sapiens, UniProt P50613). The conditions noted are these: 10 µM.
Protocol: (§1) Inhibition of FLT3(WT), FLT3(ITD) and FLT3(D835Y) and CDKs were determined using ADP Glo Kinase assays (Promega Corporation, Madison, WI, USA). […] The kinase reactions are run for an optimised time period (FLT3-WT: 120 min, FLT3-ITD: 80 min, FLT3-D835Y: 100 min) at room temperature and then the reaction was stopped by adding 5 μL of ADP Glo reagent. […] Positive and negative controls were performed in 0.5% DMSO in the presence and absence of each FLT3 kinase, respectively. […] Half-maximal inhibition (IC50) values were calculated using a 4-parameter logistic non-linear regression model with Graphpad prism (Version 6.0). Apparent inhibition constants (Ki) values were calculated from Km (ATP) and IC50 values for the respective kinases.
Assay [2] has as its target T5, CDK1B (Homo sapiens, UniProt P06493). The assay is described as follows: biochemical.
The next assay has as its target CDK2E1 (Homo sapiens, UniProt P24941). The assay can be described thus: biochemical.
For assay [3], the target named is T4, CDK7HMAT1. The assay is described as follows: biochemical.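 Note: kinase activity measured with an ADP-Glo luminescent kinase assay.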
Protocol: as §1
The target of assay [4] is T5, CDK1B. The conditions noted are these: 1 µM.
Setting [5] is: compound at 1 μM (values marked *), read-out: residual enzymatic activity (%) at 1 μM*.

CDK4/D1, sequence (P11802 whole entry, species assumed): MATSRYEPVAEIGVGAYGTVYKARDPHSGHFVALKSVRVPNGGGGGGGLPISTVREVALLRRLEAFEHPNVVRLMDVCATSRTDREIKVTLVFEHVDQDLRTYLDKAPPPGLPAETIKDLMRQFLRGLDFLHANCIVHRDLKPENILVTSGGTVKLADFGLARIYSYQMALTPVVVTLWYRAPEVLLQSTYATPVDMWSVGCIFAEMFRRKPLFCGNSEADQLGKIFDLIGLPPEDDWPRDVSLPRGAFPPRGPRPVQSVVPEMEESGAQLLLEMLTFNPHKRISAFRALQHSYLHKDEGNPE
CDK4/D1, sequence (P24385 whole entry partner, species assumed): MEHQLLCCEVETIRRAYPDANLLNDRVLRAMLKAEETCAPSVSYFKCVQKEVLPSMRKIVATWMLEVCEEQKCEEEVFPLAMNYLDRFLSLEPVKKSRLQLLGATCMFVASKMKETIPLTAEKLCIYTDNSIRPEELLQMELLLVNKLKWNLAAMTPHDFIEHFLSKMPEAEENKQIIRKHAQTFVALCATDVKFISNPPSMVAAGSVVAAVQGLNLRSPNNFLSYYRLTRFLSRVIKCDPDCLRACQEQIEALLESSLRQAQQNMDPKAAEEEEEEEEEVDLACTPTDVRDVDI
CDK6/D3, sequence (Q00534 whole entry, species assumed): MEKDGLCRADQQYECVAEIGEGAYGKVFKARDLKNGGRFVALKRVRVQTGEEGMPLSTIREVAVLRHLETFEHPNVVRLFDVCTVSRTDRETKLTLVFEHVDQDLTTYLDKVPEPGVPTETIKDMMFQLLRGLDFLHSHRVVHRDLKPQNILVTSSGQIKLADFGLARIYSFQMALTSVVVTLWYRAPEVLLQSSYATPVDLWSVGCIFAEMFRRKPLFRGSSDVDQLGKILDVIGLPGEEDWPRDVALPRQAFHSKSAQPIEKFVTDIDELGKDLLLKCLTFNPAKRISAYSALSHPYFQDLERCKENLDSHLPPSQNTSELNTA
CDK6/D3, sequence (P30281 whole entry partner, species assumed): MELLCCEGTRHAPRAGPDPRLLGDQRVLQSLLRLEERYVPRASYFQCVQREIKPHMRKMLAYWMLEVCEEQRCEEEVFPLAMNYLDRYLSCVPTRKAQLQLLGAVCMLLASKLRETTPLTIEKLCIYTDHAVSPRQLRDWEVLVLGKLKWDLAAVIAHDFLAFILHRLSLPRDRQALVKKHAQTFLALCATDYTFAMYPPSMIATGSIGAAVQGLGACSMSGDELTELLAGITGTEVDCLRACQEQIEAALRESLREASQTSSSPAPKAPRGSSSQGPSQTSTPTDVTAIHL
CDK9/CyclinT1, sequence (P50750 whole entry, species assumed): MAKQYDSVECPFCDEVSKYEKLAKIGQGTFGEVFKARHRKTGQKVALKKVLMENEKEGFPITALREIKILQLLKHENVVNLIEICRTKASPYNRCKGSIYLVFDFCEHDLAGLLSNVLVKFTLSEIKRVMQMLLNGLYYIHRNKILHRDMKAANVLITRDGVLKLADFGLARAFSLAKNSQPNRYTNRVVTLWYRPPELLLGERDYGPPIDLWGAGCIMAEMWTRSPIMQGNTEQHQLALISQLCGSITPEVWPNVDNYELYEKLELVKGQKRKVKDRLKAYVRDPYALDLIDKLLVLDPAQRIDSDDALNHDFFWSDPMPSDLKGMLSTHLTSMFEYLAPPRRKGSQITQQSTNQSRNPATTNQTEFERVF
CDK9/CyclinT1, sequence (O60563 whole entry partner, species assumed): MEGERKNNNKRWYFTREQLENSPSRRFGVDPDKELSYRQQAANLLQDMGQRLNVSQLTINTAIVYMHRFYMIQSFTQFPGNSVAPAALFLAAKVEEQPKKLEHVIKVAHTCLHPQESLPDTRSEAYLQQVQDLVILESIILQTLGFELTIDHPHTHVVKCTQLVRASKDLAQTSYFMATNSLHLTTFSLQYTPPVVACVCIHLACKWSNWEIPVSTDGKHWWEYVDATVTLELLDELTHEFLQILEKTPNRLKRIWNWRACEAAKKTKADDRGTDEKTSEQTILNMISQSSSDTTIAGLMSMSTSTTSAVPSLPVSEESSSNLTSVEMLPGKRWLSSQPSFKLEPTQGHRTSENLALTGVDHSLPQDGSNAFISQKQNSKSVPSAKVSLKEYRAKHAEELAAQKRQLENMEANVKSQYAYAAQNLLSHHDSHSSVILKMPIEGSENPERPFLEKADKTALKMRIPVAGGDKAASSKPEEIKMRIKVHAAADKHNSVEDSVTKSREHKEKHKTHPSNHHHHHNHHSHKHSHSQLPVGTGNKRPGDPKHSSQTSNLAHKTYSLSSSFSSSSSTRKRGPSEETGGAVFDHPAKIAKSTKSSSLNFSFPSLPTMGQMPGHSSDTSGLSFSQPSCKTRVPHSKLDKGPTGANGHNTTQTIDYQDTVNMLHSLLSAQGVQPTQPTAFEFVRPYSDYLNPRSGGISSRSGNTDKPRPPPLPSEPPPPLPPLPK
T5 sequence (P06493 whole entry): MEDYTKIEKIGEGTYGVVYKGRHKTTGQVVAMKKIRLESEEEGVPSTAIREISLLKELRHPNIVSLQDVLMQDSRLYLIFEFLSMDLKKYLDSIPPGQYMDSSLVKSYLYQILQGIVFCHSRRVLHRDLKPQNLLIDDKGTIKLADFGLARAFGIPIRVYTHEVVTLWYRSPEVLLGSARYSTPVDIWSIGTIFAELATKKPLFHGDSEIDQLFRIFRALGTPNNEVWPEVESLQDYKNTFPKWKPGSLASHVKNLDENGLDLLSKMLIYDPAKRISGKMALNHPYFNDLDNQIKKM
T5 sequence (P14635 whole entry partner): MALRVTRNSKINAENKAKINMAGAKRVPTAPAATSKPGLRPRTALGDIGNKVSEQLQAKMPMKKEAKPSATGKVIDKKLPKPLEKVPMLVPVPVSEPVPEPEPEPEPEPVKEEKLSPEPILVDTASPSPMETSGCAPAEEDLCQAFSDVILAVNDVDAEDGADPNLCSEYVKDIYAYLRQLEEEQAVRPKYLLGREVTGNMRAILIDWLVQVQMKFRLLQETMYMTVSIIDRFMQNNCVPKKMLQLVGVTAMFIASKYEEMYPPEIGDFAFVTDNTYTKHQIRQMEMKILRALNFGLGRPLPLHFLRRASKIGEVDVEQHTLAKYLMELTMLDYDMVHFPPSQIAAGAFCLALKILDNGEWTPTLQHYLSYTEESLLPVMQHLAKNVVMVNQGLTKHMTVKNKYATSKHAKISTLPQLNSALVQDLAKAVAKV
T4 sequence (P50613 whole entry): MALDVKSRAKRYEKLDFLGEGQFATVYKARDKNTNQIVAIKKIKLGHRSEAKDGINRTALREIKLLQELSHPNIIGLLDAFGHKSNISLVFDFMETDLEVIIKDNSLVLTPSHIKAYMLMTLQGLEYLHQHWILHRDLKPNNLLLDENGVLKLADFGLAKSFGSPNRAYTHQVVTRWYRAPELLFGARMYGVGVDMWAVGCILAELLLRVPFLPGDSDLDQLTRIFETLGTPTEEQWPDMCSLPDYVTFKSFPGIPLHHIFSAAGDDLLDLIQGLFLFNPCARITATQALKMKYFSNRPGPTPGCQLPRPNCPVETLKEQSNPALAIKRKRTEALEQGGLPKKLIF
T4 sequence (P51946 whole entry partner): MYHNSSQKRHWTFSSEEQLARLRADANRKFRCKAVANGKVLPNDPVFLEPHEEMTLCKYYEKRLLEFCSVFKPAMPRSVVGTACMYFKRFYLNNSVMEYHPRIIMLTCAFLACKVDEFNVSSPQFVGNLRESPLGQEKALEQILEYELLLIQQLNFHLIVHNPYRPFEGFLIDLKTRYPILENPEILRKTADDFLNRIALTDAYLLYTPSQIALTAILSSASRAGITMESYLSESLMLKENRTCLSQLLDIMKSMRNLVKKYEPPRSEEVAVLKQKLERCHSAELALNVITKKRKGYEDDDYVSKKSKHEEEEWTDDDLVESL
T4 sequence (P51948 whole entry partner): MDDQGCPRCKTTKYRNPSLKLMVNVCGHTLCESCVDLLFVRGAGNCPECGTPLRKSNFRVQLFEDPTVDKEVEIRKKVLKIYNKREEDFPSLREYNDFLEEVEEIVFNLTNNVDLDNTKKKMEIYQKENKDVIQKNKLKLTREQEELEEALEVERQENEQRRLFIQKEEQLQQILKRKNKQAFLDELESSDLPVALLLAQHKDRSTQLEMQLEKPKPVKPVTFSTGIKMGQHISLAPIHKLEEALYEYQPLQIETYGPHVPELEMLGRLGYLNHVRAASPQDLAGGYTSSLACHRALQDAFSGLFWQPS
Protocol for CDK6/D3: (§2) Inhibition of FLT3(WT), FLT3(ITD) and FLT3(D835Y) and CDKs were determined using ADP Glo Kinase assays (Promega Corporation, Madison, WI, USA). […] Similarly, kinase reaction for CDK4/D1 and CDK6/D3 was performed with reaction buffer (40 nM Tris base pH 7.5, 20 mM MgCl2, 0.4 mM DTT), 0.1 mg/ml BSA and RB-CTF substrate (retinoblastoma protein1 C-terminal fraction). For CDK9/CyclinT1, the kinase reaction was performed with the standard assay buffer and Kinase Dilution Buffer and RBER-IRStide substrate. Half-maximal inhibition (IC50) values were calculated using a 4-parameter logistic non-linear regression model with Graphpad prism (Version 6.0). Apparent inhibition constants (Ki) values were calculated from Km (ATP) and IC50 values for the respective kinases.
Protocol for CDK9/CyclinT1: as §2
Protocol for FLT3(D835Y): as §1
Protocol for FLT3(WT): as §1

Consider `c1ccc(Nc2nccc(-c3cnc4ccccn34)n2)nc1` [Cmpd 7, 4-(Imidazo[1,2-a]pyridin-3-yl)-N-(pyridin-2-yl)pyrimidin-2-amine], for which the Ki was 41 nM at CDK9/CyclinT1; 218 nM on CDK4/D1; 370 nM on CDK6/D3; 17 nM on FLT3(D835Y); 15 nM at FLT3(ITD); 148 nM at CDK1B [2]. Moreover, the Ki at CDK2E1 amounted to 84 nM. The concentration for 50% growth inhibition (GI50) in the assay on U937 was 512 nM; with MV-4-11, 124 nM. Besides, the remaining activity at 1 µM on FLT3(WT) worked out at 34%. For the same compound, the activity on CDK7HMAT1 [1] was determined as 43%.

In the case of `CN1CCN(c2ccc(Nc3nccc(-c4cnc5ccccn45)n3)nc2)CC1` [Cmpd 2, 4-(Imidazo[1,2-a]pyridin-3-yl)-N-(5-(4-methylpiperazin-1-yl)pyridin-2-yl)pyrimidin-2-amine], the Ki at CDK7HMAT1 [3] is 1700 nM; at CDK9/CyclinT1, 85 nM; at CDK4/D1, 155 nM; on CDK6/D3 it was 1050 nM; on FLT3(D835Y), 49 nM; at FLT3(ITD), 235 nM. Further, the Ki at CDK1B [2] turned out to be 1990 nM. Also, the results for the concentration for 50% growth inhibition (GI50) in the assay on U937 and with MV-4-11 were 504 nM and 35 nM, respectively. Moreover, the remaining activity at 1 µM at FLT3(WT) came to 33%.

As for `Fc1ccc(Nc2nccc(-c3cnc4ccccn34)n2)nc1` [Cmpd 51, N-(5-Fluoropyridin-2-yl)-4-(imidazo[1,2-a]pyridin-3-yl)pyrimidin-2-amine], the concentration for 50% growth inhibition (GI50) stood at 350 nM in the assay on U937 and 72 nM in the assay with MV-4-11. Also, the Ki at CDK2E1 was 116 nM.

As for `CC(=O)N1CCN(c2ccc(Nc3ncc(F)c(-c4cnc5ccc(C)cn45)n3)nc2)CC1` [Cmpd 31, 1-(4-(6-((5-Fluoro-4-(6-methylimidazo[1,2-a]pyridin-3-yl)pyrimidin-2-yl)amino)pyridin-3-yl)piperazin-1-yl)ethan-1-one], the Ki is 308 nM at CDK9/CyclinT1 and 301 nM on CDK2E1. For the same compound, the remaining activity at 1 µM at CDK4/D1 (setting [5]) came to 37%; on CDK6/D3 (setting [5]), 38%. Further, the values for the GI50 in the assay with U937 and in the assay with MV-4-11 were 19100 nM and 5 nM, respectively. Further, on CDK1B [4], the activity was determined as 50%.

For the compound `CN1CCN(c2ccc(Nc3nccc(-c4cnc5ccc(-c6cn[nH]c6)cn45)n3)nc2)CC1` [Cmpd 67, 4-(6-(1H-Pyrazol-4-yl)imidazo[1,2-a]pyridin-3-yl)-N-(5-(4-methylpiperazin-1-yl)pyridin-2-yl)pyrimidin-2-amine], the Ki on CDK9/CyclinT1 was 41 nM; on FLT3(ITD), 11 nM; at CDK2E1, 197 nM. Further, the GI50 with U937 is 18 nM; in the assay on MV-4-11, 17 nM.

The GI50 is the concentration giving 50% growth inhibition.
